# Non-standard residues stand in square brackets, D forms with d. Residues, ends and D or L forms follow the SMILES beside them.
# Assays:
# [1] = Peptide stability in commercial serum (CS); type: in vitro ADME, mouse
# Method: (§1) All stability tests were performed at least in triplicates.
# [2] = Peptide stability in activated serum (AS); type: in vitro ADME, CD-1 mice; conditions: 37°C, 1 h, 31.5 μmol/L
# Method: as §1
# [3] = intravenous application in mice; cited from earlier work
# [4] = Stability and metabolites across fresh blood, serum and plasma (all six matrices); conditions: for Overall stability / Sequential stability: fresh blood, serum, and plasma
# Method: Aqueous peptide solutions (3 g/L) were filled in a sterile syringe (1 mL, Dispomed Witt oHG, Gelnhausen, Deutschland) through the front end, the stainless-steel needle was attached, and blood (200 to 300 μL) was collected via cardiac puncture to obtain a peptide concentration of approximately 31,5 μmol/L. The syringe was carefully disconnected from the needle and sealed while keeping the needle in the heart. A second empty syringe was attached to the needle and 0.5 to 0.8 mL blood were collected. In parallel, the sealed syringe was gently shaken for one minute to mix the peptide solution with blood and further incubated on a Stuart Rotator SB3 (Barloworld, Scientific LTD, Stone, Staffordshire, U.K.) placed in an incubator at 37°C. […] The plasma sample designated as “blood” (B) was precipitated with trichloroacetic acid (TCA), as described below. Blood collected in the second syringe was transferred to a polypropylene tube (Eppendorf AG, Hamburg, Germany) and a BD Microtainer® serum separator tube (SST; Becton, Dickinson and Company). Polypropylene tubes were centrifuged immediately (12,000 x g, 2 to 4 min) to obtain “direct serum” (DS) as supernatant, whereas the serum separator tubes were incubated (room temperature, 1 h), centrifuged (12,000 x g, 2 min), and collected as “activated serum” (AS). Pooled mouse serum was purchased from PAA Laboratories GmbH (Pasching, Austria) and pooled CD-1 mouse plasma containing K2EDTA or lithium heparin were obtained from Innovative Research (Novi, MI, USA).
# Peptides were mixed with serum or plasma to a final concentration of 31.5 μmol/L and incubated (37°C, 750 rpm; Thermomixer, Eppendorf AG, Hamburg, Germany). Aliquots (20 or 40 μL) taken after 0 and 60 min (0, 10 and 30 min for Api88) were mixed with TCA to obtain a final concentration of 3% (w/v) and incubated on ice (10 min). After centrifugation (12,000 x g, 5 min), the supernatant was neutralized with sodium hydroxide (1 mol/L) and stored at −20°C. Samples were analyzed by RP-HPLC on a Jupiter C18-column (internal diameter: 2 mm, length: 150 mm, particle size: 5 μm, pore size: 30 nm) using a linear aqueous acetonitrile gradient containing TFA (0.1%, v/v) as ion pair reagent. Peptides were detected by recording the absorbance at 214 nm and quantified by their peak areas relative to the initial peak areas (0 min). All stability tests were performed at least in triplicates.
# Metabolites were identified on an Agilent 1100 LC system (Agilent Technologies, Santa Clara, CA, USA) coupled on-line via a UV-detector (absorbance recorded at 214 nm) to the electrospray ionization source on an ion trap mass spectrometer (ESI-IT-MS, Esquire HCT, Bruker Daltonics GmbH, Bremen, Germany). Samples were separated on an Aqua C18-column (inner diameter: 2 mm, length: 150 mm, particle size: 3 μm, pore size: 12.5 nm, Phenomenex; column temperature: 60°C) at a flow rate of 0.2 mL/min using a linear gradient of aqueous acetonitrile in the presence of formic acid (FA; 0.1%, v/v) as ion pair reagent. […] The ESI-IT-MS was operated in positive ion mode. Ionization was carried out at 365°C (source temperature) using nitrogen as curtain gas (40 psi) and dry gas (9 L/min). Mass spectra were acquired for an m/z range from 400 to 1300 at a scan rate of 8100 m/z-units per second in standard enhanced mode.
# [5] = Peptide stability in heparin plasma (HP); type: in vitro ADME, CD-1 mouse; conditions: 37°C, 1 h, 31.5 μmol/L
# Method: as §1
# [6] = Peptide stability in fresh blood taken by cardiac puncture into a syringe containing the peptide (blood, B); type: in vitro ADME, CD-1 mice; conditions: blood, 1 h
# Method: as §1
# [7] = Peptide stability in direct serum (DS); type: in vitro ADME, CD-1 mice; conditions: 37°C, 1 h, 31.5 μmol/L
# Method: as §1
# [8] = mouse serum; cited from earlier work
# [9] = Peptide stability in EDTA plasma (EP); type: in vitro ADME, CD-1 mouse; conditions: 37°C, 1 h, 31.5 μmol/L
# Method: as §1
# [10] = parameters: method as in PMID 27067364; conditions: 25% aqueous commercial serum; cited from earlier work
# human α-thrombin = molecular target: T1, human α-thrombin (Homo sapiens, UniProt P00734); test: α-Thrombin stability assay; type: in vitro ADME; conditions: cleavage C-terminal to Arg4; 0, 1, and 24 hours
# T1 construct: with human α-Thrombin for 0, 1, and 24 hours
# Method: Supplementary file pone.0178943.s003.tif: S3 Fig Stability of Api88, Api137, and LVPR-Onc112 against human α-thrombin. Chromatograms recorded after incubation of Api88 (a), Api137 (b), or LVPR-Onc112 (c) with human α-Thrombin for 0, 1, and 24 hours (UV absorbance). […] (TIF) Click here for additional data file.
# S1 Text. Method α-Thrombin stability assay.
# thrombin = tested on: thrombin; parameters: method as in PMID 18665823; conditions: recalcified citrated plasma; cited from earlier work
compound,measurement,setting,value
"CC[C@H](C)[C@H](NC(=O)[C@@H](CCCNC(=N)N)NC(=O)[C@H](CCCNC(=N)N)NC(=O)[C@@H]1CCCN1C(=O)[C@@H]1CCCN1C(=O)[C@H](CCCNC(=N)N)NC(=O)[C@@H]1CCCN1C(=O)[C@H](CCCNC(=N)N)NC(=O)[C@@H]1CCCN1C(=O)[C@H](CC(C)C)NC(=O)[C@H](Cc1ccc(O)cc1)NC(=O)[C@@H]1CCCN1C(=O)[C@@H]1CCCN1C(=O)[C@H](CCCCN)NC(=O)[C@H](CC(=O)O)NC(=O)[C@@H](N)C(C)C)C(=O)N[C@@H](Cc1ccc(O)cc1)C(=O)N[C@@H](CC(N)=O)C(=O)N[C@H](CCCNC(=N)N)C(N)=O [Onc112, VDKPPYLPRPRPPRrIYNr-NH2] (H-VDKPPYLPRPRPPR[dR]IYN[dR]-NH2)","metabolised at 1 h, 31.5 μmol/L","[1]; mouse, commercial pooled serum, commercial serum, 1 hour, read-out: peptide degraded",< 2%
same,intact peptide remaining relative to time zero,[2],at least 96%
same,plasma levels relative to Onc72,[3],around fivefold
same,Matrix in which the metabolite was identified,"[4]; LC-MS, peak area at least 1% of initially incubated peptide, B blood, DS direct serum, AS activated serum, CS commercial serum, EP EDTA plasma, HP heparin plasma, All = all six",All
same,Overall stability,[4],High
same,Sequential stability,[4],Blood = Plasma = Serum
same,intact peptide remaining relative to time zero,[5],at least 96%
same,intact peptide remaining relative to time zero,"[6]; 37°C, 31.5 μmol/L",at least 96%
same,intact peptide remaining relative to time zero,[7],at least 96%
same,serum half-life time,[8],more than 8 h
same,intact peptide remaining relative to time zero,[9],at least 96%
"CC[C@H](C)[C@H](NC(=O)[C@@H](CCCNC(=N)N)NC(=O)[C@H](CCCNC(=N)N)NC(=O)[C@@H]1CCCN1C(=O)[C@@H]1CCCN1C(=O)[C@H](CCCNC(=N)N)NC(=O)[C@@H]1CCCN1C(=O)[C@H](CCCNC(=N)N)NC(=O)[C@@H]1CCCN1C(=O)[C@H](CC(C)C)NC(=O)[C@H](Cc1ccc(O)cc1)NC(=O)[C@@H]1CCCN1C(=O)[C@@H]1CCCN1C(=O)[C@H](CCCCN)NC(=O)[C@H](CC(=O)O)NC(=O)[C@@H](NC(=O)[C@H](CCCNC(=N)N)NC(=O)[C@@H]1CCCN1C(=O)[C@@H](NC(=O)[C@@H](N)CC(C)C)C(C)C)C(C)C)C(=O)N[C@@H](Cc1ccc(O)cc1)C(=O)N[C@@H](CC(N)=O)C(=O)N[C@H](CCCNC(=N)N)C(N)=O [LVPR-Onc112, LVPRVDKPPYLPRPRPPRrIYNr-NH2] (H-LVPRVDKPPYLPRPRPPR[dR]IYN[dR]-NH2)",prodrug expected to be present in full serum,[1]; extrapolated from 25% serum data assuming three-fold faster degradation in full serum,14%
same,Onc112 released from linker peptide,[10],57%
same,sum of prodrug and released Onc112 relative to initial amount,"[4]; all matrices except for blood, 1 h",~100%
same,Overall stability,[4],Low
same,Sequential stability,[4],Blood > Serum > Plasma
same,hydrolysis by thrombin compared with Api88,human α-thrombin,slower
same,remaining at 1 h,"[6]; CD-1, mouse, fresh whole blood, 37°C, 31.5 μmol/L, read-out: intact peptide remaining relative to time zero",67 ± 4%
same,sum of prodrug and released Onc112 relative to initial amount,[6],85%
heparin,thrombin reactivated in presence of the anticoagulant,thrombin,0.06 U/mL
"O=C(O)CN(CCN(CC(=O)O)CC(=O)O)CC(=O)O [EDTA, ethylenediaminetetraacetic acid]",thrombin reactivated in presence of the anticoagulant,thrombin,0.39 U/mL

# Reference: PMC5456363 (PLoS ONE, 2017)
